Legend:
[1] = test system: Caco-2 intestinal permeability model; assay: Caco-2 permeability study of diclofenac potassium and famotidine separately and in combination; format: in vitro ADME; conditions: Caco-2, 50 μg/ml diclofenac potassium (20 μg/ml famotidine in combination)
Description: The permeability study designed using Caco-2 intestinal permeability model was prepared by using Millipore 96 well insert plate as 10,000 cells/well on Feb. 21, 2017 and placed in an incubator. Tests on integrity, viability and permeability were performed on Mar. 15, 2017. Viability results were obtained by MTT and integrity results were obtained using Lucifer yellow and the plate was determined to be eligible for permeability study. […] Methanol was used as solvent for the samples and the samples were analyzed in LC/MSMS 8040 analyzer using mobile phase, Methanol+bidistillated water+Ammonium formate.

in vivo = conditions: male, Wistar, rat, po
Description: Male Wistar rats (240-260 g) were maintained in an air conditioned quarters at a temperature of 22±2° C. and a relative humidity of 50±10%. Food and water were allowed ad libitum. The animals were acclimatized to the facilities for five days, and then fasted with free access to water for 12 h prior to the experiment. All these animals were housed under similar conditions.
Blood (0.2 ml) was taken from the tail vein prior to administration of test substances (0 h) and blood was taken after 0.083, 0.167, 0.25, 0.5, 1, 2, 4, 8 and 12 h respectively.
Blood samples were collected in tubes containing %5 Nat-EDTA and kept on ice until dichloromethane was added and they were centrifuged at 7000×g for 5 min at 4° C. and supernatants were collected for HPLC analysis.

[2] = oral, instant or immediate release formulations; cited from earlier work

Structure (SMILES) | Permeability percentage of Diclofenac potassium ([1]; 1 hour) | Permeability percentage of Diclofenac potassium ([1]; 1.5 hours) | Permeability percentage of Diclofenac potassium ([1]; 2 hours) | Permeability percentage of Diclofenac potassium ([1]; 4 hours) | Permeability percentage of Diclofenac potassium ([1]; 8 hours) | Cmax (in vivo) | Tmax (in vivo) | Tmax (time to the maximum plasma concentration) [2]
O=C(O)Cc1ccccc1Nc1c(Cl)cccc1Cl [Diclofenac potassium, 2-[2-(2,6-dichloroanilino)phenyl]acetic acid] | 76.93% | 80.76% | 81.80% | 82.22% | 86.32% | 1.24 ng/mL | 15 min | –
O=C(O)Cc1ccccc1Nc1c(Cl)cccc1Cl [diclofenac, 2-[2-(2,6-dichloroanilino)phenyl]acetic acid] | – | – | – | – | – | – | – | about 1 hour

— patent US20190307713A1, “COMBINATIONS OF DICLOFENAC AND H2 RECEPTOR ANTAGONISTS FOR THE TREATMENT OF PAIN AND INFLAMMATION” (priority 2016, published 2019)
